Data on 16 compounds can be found in ChEMBL document CHEMBL5316300, “Discovery of TP0597850: A Selective, Chemically Stable, and Slow Tight-Binding Matrix Metalloproteinase-2 Inhibitor with a Phenylbenzamide-Pentapeptide Hybrid Scaffold” (J Med Chem, 2023).

The species entered for one data set is Homo sapiens. Description: Selectivity ratio of IC50 for recombinant human MMP12 to IC50 for recombinant human MMP2.
Data set [1] concerns the target MMP-2/MMP-13 (Homo sapiens) (UniProt P08253+P45452). Description: Selectivity ratio of IC50 for recombinant human MMP13 to IC50 for recombinant human MMP2. In kind it is protein assay.
In a further data set the target is Collagenase 3 (Homo sapiens, UniProt P45452). Nature of the data set: Inhibition of human recombinant MMP13 using MOCAc-Lys-Pro-Leu-Gly-Leu-A2pr(Dnp)-Ala-Arg-N2 as substrate preincubated for 10 to 15 mins followed by substrate addition and measured after 60 to 120 mins by fluorescence based assay.
In data set [2] the target is Macrophage metalloelastase (Homo sapiens, UniProt P39900). Description: Inhibition of human recombinant MMP12 using MOCAc-Lys-Pro-Leu-Gly-Leu-A2pr(Dnp)-Ala-Arg-N2 as substrate preincubated for 10 to 15 mins followed by substrate addition and measured after 60 to 120 mins by fluorescence based assay.
Chain of Macrophage metalloelastase (P39900 whole entry): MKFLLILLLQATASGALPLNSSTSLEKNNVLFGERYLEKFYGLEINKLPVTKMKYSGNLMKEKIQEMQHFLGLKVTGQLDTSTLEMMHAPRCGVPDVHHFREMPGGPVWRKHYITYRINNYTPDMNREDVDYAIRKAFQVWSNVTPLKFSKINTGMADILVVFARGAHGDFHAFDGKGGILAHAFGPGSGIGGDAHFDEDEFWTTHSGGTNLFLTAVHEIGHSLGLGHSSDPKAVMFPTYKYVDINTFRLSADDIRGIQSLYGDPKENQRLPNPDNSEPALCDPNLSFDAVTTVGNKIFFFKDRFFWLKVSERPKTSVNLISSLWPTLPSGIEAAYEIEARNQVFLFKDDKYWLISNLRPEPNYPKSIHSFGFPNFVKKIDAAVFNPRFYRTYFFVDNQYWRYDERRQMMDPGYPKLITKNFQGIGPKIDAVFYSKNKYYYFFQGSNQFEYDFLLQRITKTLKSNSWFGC
Data set [3] has as its target T1, 72 kDa type IV collagenase (Homo sapiens, UniProt P08253). Nature of the data set: Inhibition of recombinant human MMP2 using MOCAc-Lys-Pro-Leu-Gly-Leu-A2pr(Dnp)-Ala-Arg-N2 as substrate preincubated for 10 to 15 mins followed by substrate addition and measured after 60 to 120 mins by fluorescence based assay.
The nature of data set [4]: Chemical stability of the compound in phosphate buffer at pH 4 assessed as residual rate incubated for 2 weeks by HPLC analysis. In kind it is physicochemical. Particulars: read-out: Stability; call rule not given here.
A short description of data set [5]: Chemical stability of the compound in phosphate buffer at pH 9 assessed as residual rate incubated for 2 weeks by HPLC analysis. The following applies: read-out: Stability. Format: physicochemical.
Data set [6] in a line: Chemical stability of the compound in phosphate buffer at pH 7.4 assessed as residual rate incubated for 2 weeks by HPLC analysis. Format: physicochemical. The following applies: read-out: Stability.
Data set [7] concerns the target T1, 72 kDa type IV collagenase. Description: Inhibition of MMP2 (unknown origin).

Square brackets hold non-standard residues; d marks the D form. Peptide text beside a SMILES is read from it. * marks the point of attachment. Benzoyl(4-OPh(4-CONH2)) = NC(=O)c1ccc(Oc2ccc(C(=O)*)cc2)cc1; NMeI = CC[C@H](C)[C@H](NC)C(=O)O; NMeE = CN[C@@H](CCC(=O)O)C(=O)O; β3hP = O=C(O)C[C@@H]1CCCN1; Dab = NCC[C@H](N)C(=O)O; Ava = NCCCCC(=O)O

Chain of MMP-2/MMP-13 (Homo sapiens) (P08253 whole entry, looked up, other chains not shown): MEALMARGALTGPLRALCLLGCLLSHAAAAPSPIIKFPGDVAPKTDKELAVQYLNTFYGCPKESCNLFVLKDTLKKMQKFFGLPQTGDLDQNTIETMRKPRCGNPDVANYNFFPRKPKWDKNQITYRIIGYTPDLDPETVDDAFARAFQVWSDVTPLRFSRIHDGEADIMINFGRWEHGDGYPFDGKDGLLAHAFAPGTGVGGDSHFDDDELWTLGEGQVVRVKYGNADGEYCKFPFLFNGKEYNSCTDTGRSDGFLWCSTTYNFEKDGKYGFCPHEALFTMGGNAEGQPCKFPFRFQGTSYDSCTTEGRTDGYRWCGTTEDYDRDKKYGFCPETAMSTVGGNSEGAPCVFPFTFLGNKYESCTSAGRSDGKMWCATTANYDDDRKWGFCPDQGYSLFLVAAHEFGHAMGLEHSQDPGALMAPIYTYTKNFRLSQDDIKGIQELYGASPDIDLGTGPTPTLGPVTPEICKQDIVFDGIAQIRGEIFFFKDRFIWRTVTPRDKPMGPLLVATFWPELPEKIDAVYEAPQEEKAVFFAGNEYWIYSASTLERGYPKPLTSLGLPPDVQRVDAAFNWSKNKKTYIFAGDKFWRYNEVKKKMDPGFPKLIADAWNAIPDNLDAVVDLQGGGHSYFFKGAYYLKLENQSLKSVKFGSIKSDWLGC
T1 sequence (P08253 whole entry): as the sequence (P08253 whole entry, looked up, other chains not shown) above

The IC50 is the concentration that gives 50% inhibition. As for `CC[C@H](C)[C@@H](C(=O)N1CCC[C@H]1CC(N)=O)N(C)C(=O)[C@H](CC(C)C)NC(=O)[C@H](CCN)NC(=O)CC[C@@H](NS(=O)(=O)c1ccc(NC(=O)c2ccccc2)cc1)C(=O)O`, the values for the Ratio IC50 (in the data set listed under Homo sapiens; in data set [1]) were 1300 and 850, respectively. Moreover, the 50% inhibitory concentration (IC50) was found to be 630 nM at Collagenase 3, 990 nM in data set [2] (read-out: IC50) and 0.74 nM in [3].

As for `CC[C@H](C)[C@@H](C(=O)NCCC(N)=O)N(C)C(=O)[C@H](CC(C)C)NC(=O)[C@H](CCN)NC(=O)CC[C@@H](NS(=O)(=O)c1ccc(NC(=O)c2ccc(Cl)cc2)cc1)C(=O)O`, the Ratio IC50 was 1200 in the data set listed under Homo sapiens and 1400 in data set [1]. Further, the 50% inhibitory concentration (IC50) at Collagenase 3 was determined as 280 nM; in [2] (read-out: IC50) it was 240 nM; in [3] it was 0.2 nM.

In the case of `CC[C@H](C)[C@@H](C(=O)N1CCC[C@H]1CC(N)=O)N(C)C(=O)[C@H](CC(C)C)NC(=O)[C@H](CCN)NC(=O)CC[C@@H](NS(=O)(=O)c1ccc(-c2ccccc2)cc1)C(=O)O`, the Ratio IC50 in the data set listed under Homo sapiens was 39; in [1], 37. In addition, the IC50 on Collagenase 3 turned out to be 230 nM; in data set [2] (read-out: IC50), 240 nM; in data set [3], 6.2 nM.

With `CC(C)C[C@H](NC(=O)[C@@H]1CCCN1C(=O)CC[C@@H](NS(=O)(=O)c1ccc(NC(=O)c2ccc(C(N)=O)cc2)cc1)C(=O)O)C(=O)N(C)[C@@H](CCC(=O)O)C(=O)NCCCCC(N)=O`, the Ratio IC50 worked out at 170 in the data set filed under Homo sapiens and 160 in data set [1]. Besides, the IC50 turned out to be 50 nM at Collagenase 3, 52 nM in data set [2] (read-out: IC50) and 0.31 nM in data set [3].

Turning to `CC[C@H](C)[C@@H](C(=O)NCCCC(N)=O)N(C)C(=O)[C@H](CC(C)C)NC(=O)[C@H](CCN)NC(=O)CC[C@@H](NS(=O)(=O)c1ccc(NC(=O)c2ccc(Cl)cc2)cc1)C(=O)O`, the Ratio IC50 is 1400 in the data set filed under Homo sapiens and 1800 in [1]. The IC50 on Collagenase 3 stood at 280 nM; in [2] (read-out: IC50) it was 230 nM; in data set [3] it was 0.16 nM.

With `CC[C@H](C)[C@@H](C(=O)N1CCC[C@H]1CC(N)=O)N(C)C(=O)[C@H](CC(C)C)NC(=O)[C@H](CCN)NC(=O)CC[C@@H](NS(=O)(=O)c1ccc(NC(=O)c2ccc(C(N)=O)cc2)cc1)C(=O)O`, the results for the Ratio IC50 (in the data set filed under Homo sapiens; in [1]) were 950 and 670, respectively. Further, the 50% inhibitory concentration (IC50) at Collagenase 3 is 280 nM; in data set [2] (read-out: IC50) it was 400 nM; in data set [3] it was 0.42 nM.

As to `CC[C@H](C)[C@@H](C(=O)NCCCCC(N)=O)N(C)C(=O)[C@H](CC(C)C)NC(=O)[C@@H]1C[C@H](N)CN1C(=O)CC[C@@H](NS(=O)(=O)c1ccc(NC(=O)c2ccc(C(N)=O)cc2)cc1)C(=O)O`, the Ratio IC50 in the data set listed under Homo sapiens came out at 550; in [1], 860.

Consider `CC[C@H](C)[C@@H](C(=O)NCCCCC(N)=O)N(C)C(=O)[C@H](CC(C)C)NC(=O)[C@H](CCN)NC(=O)CC[C@@H](NS(=O)(=O)c1ccc(NC(=O)c2ccc(C(N)=O)cc2)cc1)C(=O)O`, for which the remaining at 336 h in [4] was determined as 98.3%; in data set [5], 47.6%; in data set [6] it was 88.8%. In addition, the results for the Ratio IC50 (in the data set filed under Homo sapiens; in data set [1]) were 1900 and 3100, respectively. For the same compound, the half-maximal inhibitory concentration (IC50) on Collagenase 3 worked out at 690 nM; in data set [2] (read-out: IC50), 410 nM; in data set [3], 0.22 nM.

Broadly, the Ki is a dissociation constant, usually derived from enzyme kinetics or from competition with a known ligand. In the case of H-ISYGNDALMP-OH, the Ki in data set [3] is 21 nM.

Take `CC[C@H](C)[C@@H](C(=O)NCCCCC(N)=O)N(C)C(=O)[C@H](CC(C)C)NC(=O)[C@@H]1CNCCN1C(=O)CC[C@@H](NS(=O)(=O)c1ccc(NC(=O)c2ccc(Cl)cc2)cc1)C(=O)O`: the Ratio IC50 in the data set listed under Homo sapiens was 120; in data set [1], 550. For the same compound, the IC50 on Collagenase 3 turned out to be 370 nM; in data set [2] (read-out: IC50), 78 nM; in data set [3], 0.67 nM.

With `CC[C@H](C)[C@@H](C(=O)N1CCC[C@H]1CC(N)=O)N(C)C(=O)[C@H](CC(C)C)NC(=O)[C@H](CCN)NC(=O)CC[C@@H](NS(=O)(=O)c1ccc(Oc2ccccc2)cc1)C(=O)O`, the figures for the IC50 entry in [2] and in data set [3] were “Not Active” and greater than 10 nM, respectively.

Consider `CC[C@H](C)[C@@H](C(=O)NCCCCC(N)=O)N(C)C(=O)[C@H](CC(C)C)NC(=O)[C@H](CCN)NC(=O)CC[C@@H](NS(=O)(=O)c1ccc(NC(=O)c2ccc(Cl)cc2)cc1)C(=O)O`, for which the Ratio IC50 in the data set listed under Homo sapiens amounted to 1600; in data set [1], 2800. The values for the IC50 (at Collagenase 3; in data set [2] (read-out: IC50); in data set [3]) were 310 nM, 180 nM and 0.11 nM, respectively.

For the compound `CC[C@H](C)[C@@H](C(=O)N1CCC[C@H]1CC(N)=O)N(C)C(=O)[C@H](CC(C)C)NC(=O)[C@H](CCN)NC(=O)[C@H](CC(=O)O)NC(=O)[C@H](CCC(=O)O)NC(=O)CCCCNC(=O)c1ccc(Oc2ccc(C(N)=O)cc2)cc1` ({Benzoyl(4-OPh(4-CONH2))-Ava}-ED[Dab]L[NMeI][β3hP]-NH2), in data set [7], the IC50 came to 0.18 nM.

In the case of `CC[C@H](C)[C@@H](C(=O)N1CCC[C@H]1CC(N)=O)N(C)C(=O)[C@H](CC(C)C)NC(=O)[C@H](CCN)NC(=O)CC[C@@H](NS(=O)(=O)c1ccc(NC(=O)c2ccc(Cl)cc2)cc1)C(=O)O`, the values for the Ratio IC50 (in the data set filed under Homo sapiens; in [1]) were 470 and 370, respectively. The 50% inhibitory concentration (IC50) at Collagenase 3 amounted to 160 nM; in data set [2] (read-out: IC50) it was 200 nM; in data set [3] it was 0.43 nM.

`CC[C@H](C)[C@@H](C(=O)NCCCCCC(N)=O)N(C)C(=O)[C@H](CC(C)C)NC(=O)[C@H](CCN)NC(=O)CC[C@@H](NS(=O)(=O)c1ccc(NC(=O)c2ccc(Cl)cc2)cc1)C(=O)O`: the Ratio IC50 in the data set listed under Homo sapiens was determined as 2600; in [1], 2800. Besides, the IC50 was determined as 280 nM at Collagenase 3, 260 nM in data set [2] (read-out: IC50) and 0.1 nM in data set [3].

As to `CC(C)C[C@H](NC(=O)[C@H](CCN)NC(=O)[C@H](CC(=O)O)NC(=O)[C@H](CCC(=O)O)NC(=O)CCCCNC(=O)c1ccc(Oc2ccc(C(N)=O)cc2)cc1)C(=O)N(C)[C@@H](CCC(=O)O)C(=O)N1CCC[C@H]1CC(N)=O` ({Benzoyl(4-OPh(4-CONH2))-Ava}-ED[Dab]L[NMeE][β3hP]-NH2), the remaining at 336 h in [4] stood at 69.5%; in data set [5], 87.7%; in data set [6], 89%.
